The IC50 is the concentration needed to halve the response being measured.

Molecules are shown by their SMILES. Starred links: 1 amine or outer side, 2 acyl side, 3 side chain; linkers in the order of their positions; H or OH if unused. Positions of bridges follow the written chain, without caps; N, C: chain ends. Non-standard residues stand in square brackets, D forms with d. Residues, ends and D or L forms follow the SMILES beside them. *: point of attachment. Bip(4'-NHCO-C6H4-3-CH2COOH) = N[C@@H](Cc1ccc(-c2ccc(NC(=O)c3cccc(CC(=O)O)c3)cc2)cc1)C(=O)O; Bip(4'-NHCO-C6H4-4-CH2COOH) = N[C@@H](Cc1ccc(-c2ccc(NC(=O)c3ccc(CC(=O)O)cc3)cc2)cc1)C(=O)O; Bip(4'-NH) = O=C([C@H](Cc1ccc(-c2ccc(N[*:3])cc2)cc1)N[*:1])[*:2]; Bip(4'-COOH) = N[C@@H](Cc1ccc(-c2ccc(C(=O)O)cc2)cc1)C(=O)O; Ala(morpholin-4-yl) = N[C@@H](CN1CCOCC1)C(=O)O; Benzoyl(3-OCH2COOH) = O=C(O)COc1cccc(C(=O)*)c1; Tle = CC(C)(C)[C@H](N)C(=O)O; Sar = CNCC(=O)O

TNFα, sequence (P01375 77-233 limits assumed): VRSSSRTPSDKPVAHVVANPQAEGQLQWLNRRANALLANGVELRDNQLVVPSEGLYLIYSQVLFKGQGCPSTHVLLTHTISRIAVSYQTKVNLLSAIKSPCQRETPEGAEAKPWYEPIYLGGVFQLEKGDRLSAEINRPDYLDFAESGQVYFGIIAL

This assay concerns the target TNFα (Homo sapiens, UniProt P01375). The assay can be described thus: TNF-Induced HEK-Blue Assay. The format is cell-based. As to conditions: HEK-Blue-CD40L cells, NF-kB-driven secreted alkaline phosphatase reporter; TNFα 0.5 ng/ml; 18 h; read-out: TNF induced HEK-Blue assay IC50 value.
`CC[C@H](C)[C@@H]1NC(=O)[C@@H](CCCNC(=N)N)NC(=O)[C@H](CC(=O)O)NC(=O)[C@@H]2CCCN2C(=O)CN(C)C(=O)[C@H](Cc2ccc(-c3ccc(NC(=O)c4cccc(OCC(=O)O)c4)cc3)cc2)NC(=O)[C@H](Cc2ccc(-c3ccc(C(=O)O)cc3)cc2)NC(=O)[C@H](C(C)(C)C)NC(=O)CSC[C@@H](C(=O)NCC(N)=O)NC(=O)[C@H](CC(C)C)NC(=O)[C@H](Cc2cnc[nH]2)NC(=O)[C@H](C(C)C)NC(=O)[C@@H]2CCCN2C1=O` [Example 574] ({CH2CO}-[Tle][Bip(4'-COOH)][Bip(4'-NH)](Benzoyl(3-OCH2COOH))[Sar]PD[dR]IPVHLCG-NH2; thioether N-13): the IC50 was under 50 nM.

On to `CC[C@H](C)[C@@H]1NC(=O)[C@@H](CCCNC(=N)N)NC(=O)[C@H](CC(=O)O)NC(=O)[C@@H]2CCCN2C(=O)CN(C)C(=O)[C@H](Cc2ccc(-c3ccc(NC(=O)c4cccc(CC(=O)O)c4)cc3)cc2)NC(=O)[C@H](Cc2ccc(-c3ccc(C(=O)O)cc3)cc2)NC(=O)[C@H](C(C)(C)C)NC(=O)CSC[C@@H](C(=O)NCC(N)=O)NC(=O)[C@H](CC(C)C)NC(=O)[C@H](Cc2cnc[nH]2)NC(=O)[C@H](C(C)C)NC(=O)[C@@H]2CCCN2C1=O` [Example 575] ({CH2CO}-[Tle][Bip(4'-COOH)][Bip(4'-NHCO-C6H4-3-CH2COOH)][Sar]PD[dR]IPVHLCG-NH2; thioether N-13), for which the IC50 lay within 50 to 200 nM.

For `CC[C@H](C)[C@@H]1NC(=O)[C@@H](CCCNC(=N)N)NC(=O)[C@H](CC(=O)O)NC(=O)[C@@H]2CCCN2C(=O)CN(C)C(=O)[C@H](Cc2ccc(-c3ccc(NC(=O)c4ccc(CC(=O)O)cc4)cc3)cc2)NC(=O)[C@H](Cc2ccc(-c3ccc(C(=O)O)cc3)cc2)NC(=O)[C@H](C(C)(C)C)NC(=O)CSC[C@@H](C(=O)NCC(N)=O)NC(=O)[C@H](CC(C)C)NC(=O)[C@H](Cc2cnc[nH]2)NC(=O)[C@H](C(C)C)NC(=O)[C@@H]2CCCN2C1=O` [Example 576] ({CH2CO}-[Tle][Bip(4'-COOH)][Bip(4'-NHCO-C6H4-4-CH2COOH)][Sar]PD[dR]IPVHLCG-NH2; thioether N-13), the IC50 was 50 to 200 nM.

`CC[C@H](C)[C@@H]1NC(=O)[C@@H](CCCNC(=N)N)NC(=O)[C@H](CC(=O)O)NC(=O)[C@@H]2CCCN2C(=O)CN(C)C(=O)[C@H](Cc2ccc(-c3ccc(NC(=O)c4cccc(OCC(=O)O)c4)cc3)cc2)NC(=O)[C@H](Cc2ccc(-c3ccc(C(=O)O)cc3)cc2)NC(=O)[C@H](CN2CCOCC2)NC(=O)CSC[C@@H](C(=O)NCC(N)=O)NC(=O)[C@H](CC(C)C)NC(=O)[C@H](Cc2cnc[nH]2)NC(=O)[C@H](C(C)C)NC(=O)[C@@H]2CCCN2C1=O` [Example 577] ({CH2CO}-[Ala(morpholin-4-yl)][Bip(4'-COOH)][Bip(4'-NH)](Benzoyl(3-OCH2COOH))[Sar]PD[dR]IPVHLCG-NH2; thioether N-13): the IC50 is 50 to 200 nM.

On to `CC[C@H](C)[C@@H]1NC(=O)[C@@H](CCCNC(=N)N)NC(=O)[C@H](CC(=O)O)NC(=O)[C@@H]2CCCN2C(=O)CN(C)C(=O)[C@H](Cc2ccc(-c3ccc(NC(=O)c4cccc(CC(=O)O)c4)cc3)cc2)NC(=O)[C@H](Cc2ccc(-c3ccc(C(=O)O)cc3)cc2)NC(=O)[C@H](CN2CCOCC2)NC(=O)CSC[C@@H](C(=O)NCC(N)=O)NC(=O)[C@H](CC(C)C)NC(=O)[C@H](Cc2cnc[nH]2)NC(=O)[C@H](C(C)C)NC(=O)[C@@H]2CCCN2C1=O` [Example 578] ({CH2CO}-[Ala(morpholin-4-yl)][Bip(4'-COOH)][Bip(4'-NHCO-C6H4-3-CH2COOH)][Sar]PD[dR]IPVHLCG-NH2; thioether N-13), for which the IC50 is under 50 nM.

For the origin of these results see patent publication US20250145665A1, “MACROCYCLIC PEPTIDES USEFUL AS MODULATORS OF TNF ALPHA” (Bristol-Myers Squibb Company, priority 2023, published 2025).
